The record followed here is ChEMBL document CHEMBL4385608, “5-Aryl-1,3,4-oxadiazol-2-ylthioalkanoic Acids: A Highly Potent New Class of Inhibitors of Rho/Myocardin-Related Transcription Factor (MRTF)/Serum Response Factor (SRF)-Mediated Gene Transcription as Potential Antifibrotic Agents for Scleroderma” (J Med Chem, 2019).

In brackets after ≈: the same amount, converted by molar mass. Activity calls are given as the source filed them. The calls are words filed in the database; no cut-off is given here.

A word on the IC50: it is the concentration needed to halve the response being measured. What is called clearance is the volume of plasma or blood freed of the substance per unit of time. What is called Cmax is the maximum level reached in the sampled fluid or tissue. In general, AUC refers to concentration integrated over time. The term half-life denotes the time in which the quantity being followed falls by half. For orientation: bioavailability means dose-corrected exposure relative to a reference, in per cent.

The species named for data set [1] is Homo sapiens. Put plainly: Inhibition of Rho/MRTF/SRF pathway in human primary dermal fibroblasts assessed as reduction in LPA-stimulated CTGF mRNA expression by measuring CTGF mRNA level at 10^-6 M preincubated for 72 hrs followed by LPA stimulation and measured after 1 hr by qPCR analysis relative to control. Details: scale not given: the % may be the effect or the level left. Background: Quantitative PCR measures a nucleic acid by following its amplification.

For data set [2], the species on record is Homo sapiens. Description: Inhibition of Rho/MRTF/SRF pathway (unknown origin) expressed in human PC3 cells assessed as reduction in Galpha12 Q231L-stimulated MRTF-selective SRE.L promoter-driven luciferase activity up to 100 uM after overnight incubation by luminescence assay. In kind it is cell-based.
Data set [3] concerns PC-3. Put plainly: Cytotoxicity against human PC3 cells assessed as reduction in cell viability up to 100 uM by CellTiter-Fluor assay. In kind it is cell-based.
A short description of data set [4]: Inhibition of Rho/MRTF/SRF pathway (unknown origin) expressed in HEK293T cells assessed as reduction in Galpha12-stimulated MRTF-selective SRE.L promoter-driven luciferase activity after overnight incubation by luminescence assay. It is filed as cell-based, Homo sapiens.
Data set [5] deals with PC-3. Description: Cytotoxicity against human PC3 cells assessed as reduction in cell viability up to 100 uM by WST-1 assay relative to control. It is filed as cell-based. (Tetrazolium dyes change colour on reduction, which living cells bring about.)
Data set [6] can be described thus: Inhibition of Rho/MRTF/SRF pathway (unknown origin) expressed in human PC3 cells assessed as reduction in Galpha12 Q231L-stimulated MRTF-selective SRE.L promoter-driven luciferase activity after overnight incubation by luminescence assay. In kind it is cell-based.
Data set [7] can be described thus: Half-life in CD-1 mouse liver microsomes at 1 uM in presence of NADPH by LC-MS/MS analysis. It is filed as ADME, Microsome.
Data set [8] in a line: Clearance in CD-1 mouse at 10 mg/kg, iv by LC-MS/MS analysis. In kind it is ADME, organism-based. To be noted: in vivo.
Data set [9] is described as follows: Cmax in CD-1 mouse at 10 mg/kg, iv by LC-MS/MS analysis. It is filed as ADME, organism-based. Further details: dose 10 mg/kg, route intravenous. The settings on record: in vivo.
Data set [10] can be described thus: AUC in CD-1 mouse at 10 mg/kg, iv by LC-MS/MS analysis. It is filed as ADME, organism-based. To be noted: in vivo.
Data set [11] in a line: Half-life in CD-1 mouse at 20 mg/kg, po by LC-MS/MS analysis. The settings on record: in vivo. In kind it is ADME, organism-based.
The nature of data set [12]: Oral bioavailability in CD-1 mouse at 20 mg/kg by LC-MS/MS analysis. To be noted: in vivo. It is filed as ADME, organism-based.
The nature of data set [13]: Thermodynamic solubility of the compound. In kind it is physicochemical. The settings on record: read-out: Therm_solubility.
Data set [14] deals with HEK-293T. Put plainly: Cytotoxicity against HEK293T cells assessed as reduction in cell viability up to 100 uM by WST-1 assay relative to control. To be noted: human. It is filed as cell-based.
Data set [15] can be described thus: Half-life in CD-1 mouse at 10 mg/kg, iv by LC-MS/MS analysis. It is filed as ADME, organism-based. To be noted: in vivo.
Data set [16] can be described thus: Cmax in CD-1 mouse at 20 mg/kg, po by LC-MS/MS analysis. Details: dose 20 mg/kg, route oral. It is filed as ADME, organism-based. The settings on record: in vivo.
Data set [17] can be described thus: AUC in CD-1 mouse at 20 mg/kg, po by LC-MS/MS analysis. To be noted: in vivo. In kind it is ADME, organism-based.
A short description of data set [18]: AUC in CD-1 mouse at 10 mg/kg, po by LC-MS/MS analysis. It is filed as ADME, organism-based. The settings on record: in vivo.
For data set [19], the system named is Mus musculus. Put plainly: Antifibrotic activity in bleomycin-induced C57BL/6 mouse model of dermal fibrosis assessed as decrease in dermal thickness at 3 to 10 mg/kg, po administered via gavage for 14 days measured post-last dose by Masson's trichrome-staining based microscopic method. It is filed as functional, organism-based.
Data set [20] relates to Mus musculus. Put plainly: Antifibrotic activity in bleomycin-induced C57BL/6 mouse model of dermal fibrosis assessed as decrease in hydroxyproline content at 3 to 10 mg/kg, po administered via gavage for 14 days measured post-last dose. It is filed as functional, organism-based.
Data set [21] is described as follows: Half-life in CD-1 mouse at 3 mg/kg, po by LC-MS/MS analysis. In kind it is ADME, organism-based. The settings on record: in vivo.
The nature of data set [22]: Half-life in CD-1 mouse at 30 mg/kg, po by LC-MS/MS analysis. In kind it is ADME, organism-based. The settings on record: in vivo.
Data set [23] is described as follows: Oral bioavailability in CD-1 mouse at 30 mg/kg by LC-MS/MS analysis. In kind it is ADME, organism-based. To be noted: in vivo.
Data set [24] is described as follows: Oral bioavailability in CD-1 mouse at 3 mg/kg by LC-MS/MS analysis. In kind it is ADME, organism-based. To be noted: in vivo.
The nature of data set [25]: Cmax in CD-1 mouse at 10 mg/kg, po by LC-MS/MS analysis. In kind it is ADME, organism-based. Details: dose 10 mg/kg, route oral. To be noted: in vivo.
Data set [26] is described as follows: Oral bioavailability in CD-1 mouse at 10 mg/kg by LC-MS/MS analysis. It is filed as ADME, organism-based. To be noted: in vivo.
Data set [27] is filed under the species Homo sapiens. Put plainly: Inhibition of Rho/MRTF/SRF pathway in human primary dermal fibroblasts assessed as reduction in LPA-stimulated CTGF mRNA expression preincubated for 72 hrs followed by LPA stimulation and measured after 1 hr by qPCR analysis.
The nature of data set [28]: Half-life in CD-1 mouse at 10 mg/kg, po by LC-MS/MS analysis. It is filed as ADME, organism-based. The settings on record: in vivo.
A short description of data set [29]: AUC in CD-1 mouse at 3 mg/kg, iv by LC-MS/MS analysis. It is filed as ADME, organism-based. To be noted: in vivo.
Data set [30] in a line: AUC in CD-1 mouse at 30 mg/kg, po by LC-MS/MS analysis. It is filed as ADME, organism-based. The settings on record: in vivo.
Data set [31] in a line: Equilibrium solubility of the compound in phosphate buffer saline. It is filed as physicochemical.
Data set [32] can be described thus: Cmax in CD-1 mouse at 3 mg/kg, po by LC-MS/MS analysis. The settings on record: in vivo. Details: dose 3 mg/kg, route oral. In kind it is ADME, organism-based.
Data set [33] can be described thus: Cmax in CD-1 mouse at 30 mg/kg, po by LC-MS/MS analysis. To be noted: in vivo. In kind it is ADME, organism-based. Further details: dose 30 mg/kg, route oral.
A short description of data set [34]: Clearance in CD-1 mouse at 3 mg/kg, iv by LC-MS/MS analysis. It is filed as ADME, organism-based. To be noted: in vivo.
The nature of data set [35]: AUC in CD-1 mouse at 3 mg/kg, po by LC-MS/MS analysis. It is filed as ADME, organism-based. To be noted: in vivo.
The species named for data set [36] is Homo sapiens. Description: Inhibition of Rho/MRTF/SRF pathway in human primary dermal fibroblasts assessed as reduction in LPA-stimulated CTGF mRNA expression preincubated for 48 hrs followed by LPA stimulation and measured after 1 hr by qPCR analysis.
The nature of data set [37]: Cmax in CD-1 mouse at 3 mg/kg, iv by LC-MS/MS analysis. It is filed as ADME, organism-based. To be noted: in vivo. Details: dose 3 mg/kg, route intravenous.
The nature of data set [38]: Half-life in CD-1 mouse at 3 mg/kg, iv by LC-MS/MS analysis. It is filed as ADME, organism-based. The settings on record: in vivo.
Data set [39] has as its system PC-3. Description: Cytotoxicity against human PC3 cells assessed as reduction in cell viability by CellTiter-Fluor assay. In kind it is cell-based.

For the compound `Cc1ccc(=O)n(-c2ccccc2)c1` [PIRFENIDONE], the results for the Activity in data set [1] and in [3] were 91% and “Toxic”, respectively. In addition, the inhibition entry in data set [2] is “inactive”.
On to `O=C(O)CCCSc1nnc(-c2ccc(Cl)cc2Cl)o1`, for which the IC50 in [4] came to 0.84 nM; in [6] it was 1.8 nM. Moreover, the Activity in [5] and in data set [14] was below 5% each time. Also, the t1/2 in data set [7] was above 1 h. This compound came in with a clearance in [8] of 15.5 mL/min/kg. The Cmax in [9] amounted to 35600 ng/mL; in [16] it was 23200 ng/mL. For the same compound, the AUC came to 10700 ng·h/mL in data set [10] and 11100 ng·h/mL in [17]. The half-life in [11] is 1.2 h; in data set [15] it was 1.4 h. Moreover, in data set [12], the bioavailability came out at 52%. Besides, the solubility thermodynamic in data set [13] turned out to be 841 µM (≈ 280 µg/mL).
For the compound `O=C(O)CCCSc1nnc(-c2ccc(C3CC3)cc2Cl)o1`, the IC50 in data set [4] and in data set [6] was 0.001 nM in each case. Further, the Activity in [5] and in data set [14] was below 5% in each case. Moreover, the AUC is 1830 ng·h/mL in data set [18], 3260 ng·h/mL in data set [29], 9500 ng·h/mL in data set [30] and 361 ng·h/mL in [35]. The result in [19] and in data set [20] was Active. Moreover, in data set [7], the t1/2 turned out to be 0.783 h. In addition, the half-life in data set [21] was 1.6 h; in [22] it was 2.2 h; in [28], 1.8 h; in data set [38] it was 1.7 h. In addition, the bioavailability came out at 29% in [23], 11% in [24] and 17% in [26]. The Cmax is 1430 ng/mL in [25], 397 ng/mL in data set [32], 10100 ng/mL in [33] and 8140 ng/mL in data set [37]. Further, the inhibition result in [27] is “Dose-dependent effect”. In data set [31], this compound came in with a solubility thermodynamic above 1000 µM. The same compound came in with a clearance in [34] of 15.4 mL/min/kg. In data set [36], the inhibition result is “inactive”.
With `COC(=O)c1ccc2c(c1)NC(=O)/C2=C(\Nc1ccc(N(C)C(=O)CN2CCN(C)CC2)cc1)c1ccccc1` [NINTEDANIB], the figures for the IC50 in [6] and in [39] were 1300 nM and below 30000 nM, respectively. Moreover, the Activity in [1] is 45%.
